Data taken from US20250129101A1, “Compound, Pharmaceutical Composition Comprising the Same and Method for Treating Cancer Using the Same” (NATIONAL TSING HUA UNIVERSITY, priority 2023, published 2025).

How the values were obtained:
MDA-MB-231 cells = assay: Cell validation: cytotoxicity in MDA-MB-231 cells (CellTiter-Glo); format: cell-based; conditions: for IC50: Homo sapiens; for IC50 / Cell validation (IC50): cytotoxicity in MDA-MB-231 cells
Procedure: (§1) The in vitro validation was performed by measuring KIF2C kinesin activity using malachite green-based phosphate colorimetric assay (BioVision). […] The microtubules from porcine brain tubulin (Cytoskeleton) or purified from HEK293 cells in Free-style medium (293Fs) were dissolved in the BRB80 buffer (80 mM PIPES pH 6.8, 1 mM EGTA, 1 mM MgCl2, 1 mM GTP, 1 mM DTT, and 10% DMSO) at 37° C. for 2 hr. Phosphates released from kinesin-mediated ATP hydrolysis was measured by adding 30 μL of the phosphate colorimetric reagent (BioVision), incubated for 10 min, and then measured with absorbance at 650 nm. […] The cell validation was performed by measuring cytotoxicity in MDA-MB-231 cells. The cells were cultured in a 96-well plate at a confluence of 2000 cells/well with indicates compounds for specific days. When the time was up, the culture medium in the plate was aspirated and replaced with a prepared CellTiter-Glo reagent (Promega)/DMEM mixture (1:1 mix of CellTiter-Glo reagent and serum-supplemented DMEM). After incubation for 10 min, the luminescence was measured with an ELISA plate reader to determine the cell viability.
The cancer cells were cultured in a 96-well plate at a confluence of 1000-2000 cells/well with indicated drugs for specific days. When the time was up, the culture medium in the plate was aspirated and replaced with a prepared CellTiter-Glo reagent/DMEM mixture (1:1 mix of CellTiter-Glo reagent and serum-supplemented DMEM). After incubation for 10 min, the luminescence (proportional to the number of living cells) was measured with an ELISA plate reader to determine the cell viability.

KIF2C = molecular target: T1, KIF2C (Homo sapiens, UniProt Q99661); assay: In vitro validation: KIF2C kinesin activity, malachite green-based phosphate colorimetric assay; format: biochemical; conditions: concentration that inhibits 50% of KIF2C activity
T1 construct: KIF2C (216-598 a.a.); 6xHis (C); made in house; host or cells: E. coli BL21 (DE3), pET-28a
T1 sequence (Q99661 216-598): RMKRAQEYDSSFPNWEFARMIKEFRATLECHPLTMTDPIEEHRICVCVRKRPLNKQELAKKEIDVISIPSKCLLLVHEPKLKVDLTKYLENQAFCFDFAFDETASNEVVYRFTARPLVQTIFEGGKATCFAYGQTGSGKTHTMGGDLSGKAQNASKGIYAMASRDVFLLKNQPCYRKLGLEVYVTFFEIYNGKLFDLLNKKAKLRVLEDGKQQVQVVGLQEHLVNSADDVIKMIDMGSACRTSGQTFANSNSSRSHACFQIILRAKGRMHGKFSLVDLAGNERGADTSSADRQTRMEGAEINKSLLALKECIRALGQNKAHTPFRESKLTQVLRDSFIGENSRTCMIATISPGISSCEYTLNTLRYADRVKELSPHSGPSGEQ
Procedure: as §1
In vitro kinesin activity was measured using malachite green-based phosphate colorimetric assay (BioVision). […] The microtubules from porcine brain tubulin (Cytoskeleton) or purified from HEK293 cells in Free-style medium (293Fs) were dissolved in the BRB80 buffer (80 mM PIPES pH 6.8, 1 mM EGTA, 1 mM MgCl2, 1 mM GTP, 1 mM DTT, and 10% DMSO) at 37° C. for 2 hr. Phosphates released from kinesin-mediated ATP hydrolysis was measured by adding 30 μL of the phosphate colorimetric reagent (BioVision), incubated for 10 min, and then measured with absorbance at 650 nm.
Constructs of sN+M regions of KIF2C (216-598 a.a.), KIF2A (181-562 a.a.) and KIF2B (171-553 a.a.) with C-terminal 6×His tag were subcloned into pET-28a vector and expressed in BL21 (DE3) E. coli cells (Novartis) cultured in Luria-Bertani medium supplemented with 50 ug/mL kanamycin at 37° C. After induction with 0.8 mM IPTG for 18 hr at 20° C., the cells were pelleted by centrifugation at 6000 rpm for 30 min at 10° C. The collected pellets were resuspended in 30 mL of buffer A (20 mM Tris-HCl pH 7.5, 500 mM NaCl, 10 mM imidazole, 1% CHAPS, and 1 mM PMSF) and next subjected to a high-pressure homogenizer (EmulsiFlex-C3) for cell lysis. After removing the cell debris by centrifugation at 13000 rpm for 30 min at 10° C., the recombinant Kinesin-13 in the supernatant was purified using nickel affinity chromatography. Firstly, the supernatant was applied to the Ni-NTA column (GE Healthcare) pre-equilibrated with buffer A. Secondly, the column was washed with 10× column volumes of buffer A to remove the unwanted proteins. The washed column was then eluted with 10× column volumes of buffer containing increasing concentrations of imidazole (40, 100, 300, 1000 mM), and the majority of the recombinant Kinesin-13 protein was eventually obtained in a fraction of 300 mM imidazole. The fractions containing the recombinant Kinesin-13 were subsequently concentrated in the buffer B (20 mM Tris-HCl pH 7.5, 10 mM imidazole, 50 mM NaCl, 2 mM DTT) using an Amicon® Ultra filter (Millipore) and subjected to cation exchange column (Capto S, GE Healthcare) for further purification. The recombinant Kinesin-13 was then eluted in elution buffer (20 mM Tris-HCl pH 7.5 and 2 mM DTT) containing 400 mM of NaCl and stored at −80° C. for long-term storage.

**Q.** How did the IC50 (MDA-MB-231 cells) turn out when `CC1=C(C(=O)OC(C)C)C(c2ccc(Cl)cc2)n2c(s/c(=C\c3ccc(OC(C)(C)C(=O)O)cc3)c2=O)=N1` (stereo not drawn) [47S0 (107), (Z)-2-(4-((5-(4-chlorophenyl)-6-(isopropoxycarbonyl)-7-methyl-3-oxo-5H-thiazolo[3,2-a]pyrimidin-2(3H)-ylidene)methyl)phenoxy)-2-methylpropanoic acid] was run?
**A.** > 50 µM

**Q.** What about the EC50 (KIF2C) of the same compound?
**A.** > 100 µM

**Q.** Which IC50 (MDA-MB-231 cells) does the source give for `CCN1CCN(C(=O)COc2ccc(/C=c3\sc4n(c3=O)C(c3ccc(N(C)C)cc3)C(C(=O)O)=C(C)N=4)cc2)CC1` (stereo not drawn) [Compound 145] here?
**A.** > 50 µM

**Q.** What about the EC50 (KIF2C) of the same compound?
**A.** < 50 µM

**Q.** `CCN1CCN(C(=O)COc2ccc(/C=c3\sc4n(c3=O)C(c3cccc(Cl)c3)C(C(=O)OC(C)C)=C(C)N=4)cc2)CC1` (stereo not drawn) [16S0 (67), isopropyl (Z)-5-(3-chlorophenyl)-2-(4-(2-(4-ethylpiperazin-1-yl)-2-oxoethoxy)benzylidene)-7-methyl-3-oxo-2,3-dihydro-5H-thiazolo[3,2-a]pyrimidine-6-carboxylate] was tested. Which “Cell validation (IC50)” value (MDA-MB-231 cells) did it give?
**A.** + +

**Q.** What about the EC50 (KIF2C) of the same compound?
**A.** 50 to 100 µM

**Q.** With `CCOC(=O)C1=C(C)N=c2s/c(=C\c3ccc(OCC(=O)N4CCN(C)CC4)cc3)c(=O)n2C1c1ccc(N(C)C)cc1` (stereo not drawn) [Compound 143] as the compound, how does the IC50 (MDA-MB-231 cells) read?
**A.** 20 to 50 µM

**Q.** And the EC50 (KIF2C)?
**A.** 50 to 100 µM

**Q.** Which results are given for `CCC1=C(C(=O)OC(C)C)C(c2ccc(Cl)cc2)n2c(s/c(=C\c3ccc(OCC(=O)N4CCN(C)CC4)cc3)c2=O)=N1` (stereo not drawn) [28S0 (105), isopropyl (Z)-5-(4-chlorophenyl)-7-ethyl-2-(4-(2-(4-methylpiperazin-1-yl)-2-oxoethoxy)benzylidene)-3-oxo-2,3-dihydro-5H-thiazolo[3,2-a]pyrimidine-6-carboxylate]?
**A.** IC50 (MDA-MB-231 cells): 20 to 50 µM; EC50 (KIF2C): > 100 µM

**Q.** With `CC1=C(C(=O)OC(C)C)C(c2ccc(Cl)cc2)n2c(s/c(=C\c3ccc(OCC(N)=O)cc3)c2=O)=N1` (stereo not drawn) [8S0 (15), isopropyl (Z)-2-(4-(2-amino-2-oxoethoxy)benzylidene)-5-(4-chlorophenyl)-7-methyl-3-oxo-2,3-dihydro-5H-thiazolo[3,2-a]pyrimidine-6-carboxylate] as the compound, how does the IC50 (MDA-MB-231 cells) read?
**A.** > 50 µM

**Q.** And the EC50 (KIF2C)?
**A.** > 100 µM

**Q.** How did the IC50 (MDA-MB-231 cells) turn out when `CC1=C(C(=O)OC(C)C)C(c2ccc(C)cc2)n2c(s/c(=C\c3ccc(OCC(=O)O)cc3)c2=O)=N1` (stereo not drawn) [17S0 (50), (Z)-2-(4-((6-(isopropoxycarbonyl)-7-methyl-3-oxo-5-(p-tolyl)-5H-thiazolo[3,2-a]pyrimidin-2(3H)-ylidene)methyl)phenoxy)acetic acid] was run?
**A.** > 50 µM

**Q.** What about the EC50 (KIF2C) of the same compound?
**A.** > 100 µM

**Q.** Which results are given for `C=CCOC(=O)C1=C(C)N=c2s/c(=C\c3ccc(OCC(=O)N4CCN(C)CC4)cc3)c(=O)n2C1c1ccc(Cl)cc1` (stereo not drawn) [30S0 (96), allyl (Z)-5-(4-chlorophenyl)-7-methyl-2-(4-(2-(4-methylpiperazin-1-yl)-2-oxoethoxy)benzylidene)-3-oxo-2,3-dihydro-5H-thiazolo[3,2-a]pyrimidine-6-carboxylate]?
**A.** Cell validation (IC50) (MDA-MB-231 cells): + +; EC50 (KIF2C): > 100 µM

**Q.** Which “Cell validation (IC50)” value (MDA-MB-231 cells) does the source give for `CC1=C(C(=O)OC(C)C)C(c2ccc(-n3ccnc3)cc2)n2c(s/c(=C\c3ccc(OCC(=O)N4CCN(C)CC4)cc3)c2=O)=N1` (stereo not drawn) [21S0 (46), isopropyl (Z)-5-(4-(1H-imidazol-1-yl)phenyl)-7-methyl-2-(4-(2-(4-methylpiperazin-1-yl)-2-oxoethoxy)benzylidene)-3-oxo-2,3-dihydro-5H-thiazolo[3,2-a]pyrimidine-6-carboxylate] here?
**A.** + +

**Q.** What about the EC50 (KIF2C) of the same compound?
**A.** 50 to 100 µM

**Q.** `CCN1CCN(C(=O)COc2ccc(/C=c3\sc4n(c3=O)C(c3ccc(Cl)cc3)C(C(=O)OC(C)C)=C(C)N=4)cc2)CC1` (stereo not drawn) [Compound 13S0] was tested. Which “cytotoxicity on MDA-MB-231 cells (in words)” value (MDA-MB-231 cells; 72 hr) did it give?
**A.** showed cytotoxicity

**Q.** And the “Cell validation (IC50)” value (MDA-MB-231 cells)?
**A.** + +

**Q.** And the EC50 (KIF2C)?
**A.** 50 to 100 µM

**Q.** How did the IC50 (MDA-MB-231 cells) turn out when `COC(=O)COc1ccc(/C=c2\sc3n(c2=O)C(c2ccc(Cl)cc2)C(C(=O)OC(C)C)=C(C)N=3)cc1` (stereo not drawn) [46S0 (25), isopropyl (Z)-5-(4-chlorophenyl)-2-(4-(2-methoxy-2-oxoethoxy)benzylidene)-7-methyl-3-oxo-2,3-dihydro-5H-thiazolo[3,2-a]pyrimidine-6-carboxylate] was run?
**A.** > 50 µM

**Q.** And the EC50 (KIF2C)?
**A.** > 100 µM

**Q.** `CCOC(=O)C1=C(C)N=c2s/c(=C\c3ccc(OCC(=O)O)cc3)c(=O)n2C1c1ccc(Cl)cc1` (stereo not drawn) [12S0 (79), (Z)-2-(4-((5-(4-chlorophenyl)-6-(ethoxycarbonyl)-7-methyl-3-oxo-5H-thiazolo[3,2-a]pyrimidin-2(3H)-ylidene)methyl)phenoxy)acetic acid] was tested. Which IC50 (MDA-MB-231 cells) did it give?
**A.** > 50 µM

**Q.** What about the EC50 (KIF2C) of the same compound?
**A.** < 20 µM

**Q.** Which results are given for `CC1=C(C(=O)OC(C)C)C(c2ccc(Cl)cc2)n2c(s/c(=C\c3ccc(OCC(=O)N4CCN(C5CCCCC5)CC4)cc3)c2=O)=N1` (stereo not drawn) [22S0 (17), propan-2-yl (2Z)-5-(4-chlorophenyl)-2-(4-(2-(4-cyclohexylpiperazin-1-yl)-2-oxoethoxy)benzylidene)-7-methyl-3-oxo-2,3-dihydro-5H-[1,3]thiazolo[3,2-a]pyrimidine-6-carboxylate]?
**A.** IC50 (MDA-MB-231 cells): > 50 µM; EC50 (KIF2C): > 100 µM

**Q.** Which results are given for `CC1=C(C(=O)OC(C)C)C(c2ccc(Cl)cc2)n2c(s/c(=C\c3ccc(OCCCO)cc3)c2=O)=N1` (stereo not drawn) [39S0 (118), isopropyl (Z)-5-(4-chlorophenyl)-2-(4-(3-hydroxypropoxy)benzylidene)-7-methyl-3-oxo-2,3-dihydro-5H-thiazolo[3,2-a]pyrimidine-6-carboxylate]?
**A.** IC50 (MDA-MB-231 cells): > 50 µM; EC50 (KIF2C): > 100 µM

**Q.** With `COc1ccc(C2C(C(=O)OC(C)C)=C(C)N=c3s/c(=C\c4ccc(OCC(=O)N5CCC(N6CCN(C)CC6)CC5)cc4)c(=O)n32)cc1` (stereo not drawn) [43S0 (62), isopropan-2-yl (2Z)-5-(4-chlorophenyl)-7-methyl-2-(4-(2-(4-(4-methylpiperazin-1-yl)piperidin-1-yl)-2-oxoethoxy)benzylidene)-3-oxo-2,3-dihydro-5H-[1,3]thiazolo[3,2-a]pyrimidine-6-carboxylate] as the compound, how does the “Cell validation (IC50)” value (MDA-MB-231 cells) read?
**A.** + + + +

**Q.** And the EC50 (KIF2C)?
**A.** 50 to 100 µM

**Q.** How did the IC50 (MDA-MB-231 cells) turn out when `CC1=C(C(=O)OC(C)C)C(c2cccc(Cl)c2)n2c(s/c(=C\c3ccc(OCC(=O)O)cc3)c2=O)=N1` (stereo not drawn) [15S0 (66), (Z)-2-(4-((5-(3-chlorophenyl)-6-(isopropoxycarbonyl)-7-methyl-3-oxo-5H-thiazolo[3,2-a]pyrimidin-2(3H)-ylidene)methyl)phenoxy)acetic acid] was run?
**A.** > 50 µM

**Q.** What about the EC50 (KIF2C) of the same compound?
**A.** > 100 µM

**Q.** How did the “Cell validation (IC50)” value (MDA-MB-231 cells) turn out when `CC1=C(C(=O)OC(C)C)C(c2ccc(Br)cc2)n2c(s/c(=C\c3ccc(OCC(=O)N4CCN(C)CC4)cc3)c2=O)=N1` (stereo not drawn) [20S0 (41), isopropyl (Z)-5-(4-bromophenyl)-7-methyl-2-(4-(2-(4-methylpiperazin-1-yl)-2-oxoethoxy)benzylidene)-3-oxo-2,3-dihydro-5H-thiazolo[3,2-a]pyrimidine-6-carboxylate] was run?
**A.** + + +

**Q.** And the EC50 (KIF2C)?
**A.** 50 to 100 µM

**Q.** With `CCOC(=O)C1=C(C)N=c2s/c(=C\c3ccc(OCC(=O)OC)cc3)c(=O)n2C1c1ccc(Cl)cc1` (stereo not drawn) [35S0 (110), ethyl (Z)-5-(4-chlorophenyl)-2-(4-(2-methoxy-2-oxoethoxy)benzylidene)-7-methyl-3-oxo-2,3-dihydro-5H-thiazolo[3,2-a]pyrimidine-6-carboxylate] as the compound, how does the IC50 (MDA-MB-231 cells) read?
**A.** 20 to 50 µM

**Q.** What about the EC50 (KIF2C) of the same compound?
**A.** > 100 µM

**Q.** Which IC50 (MDA-MB-231 cells) does the source give for `CNc1ccc(C2C(C(=O)OC(C)C)=C(C)N=c3s/c(=C\c4ccc(OCC(=O)N5CCN(C)CC5)cc4)c(=O)n32)cc1` (stereo not drawn) [Compound 140] here?
**A.** 20 to 50 µM

**Q.** What about the EC50 (KIF2C) of the same compound?
**A.** 50 to 100 µM
